Data: PubChem BioAssay AID1845216 (Molecular Pharmacology Branch, DTP, NCI, 2023)

Tested on: SW 982 tumor spheroid viability
Test: Anticancer human tumor SW 982 cell line growth inhibition;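 note: spheroids exposed to compound for 7 days before readout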
Settings: spheroids with HUVEC and MSC; for IC50: curve of first compound; for viability, T/C: stronger effect = lower value
Source text: Multicellular complex tumor spheroid response to DNA repair inhibitors in combination with DNA-damaging drugs
This study explores the anticancer activities of DNA-damaging drugs and inhibitors of DNA damage repair, both as single agents and in combinations. Complex tumor spheroids comprised of malignant cells, endothelial cells and mesenchymal stem cells served as an in vitro model for human solid tumors. This model system incorporates physiologically relevant features and patient-derived or established malignant cell lines with clinically relevant genetic alterations from many tumor types. Twenty-six patient-derived or established malignant cell lines were evaluated representing sarcoma, melanoma, small cell lung cancer (SCLC), non-small cell lung cancer (NSCLC), as well as bladder, ovarian and pancreatic cancers. The concentration ranges selected for each drug and investigational agent were based upon clinically achievable concentrations if the clinical Cmax of the agent was known.
Compounds. The drugs and compounds olaparib (NSC753686), talazoparib (NSC767125), berzosertib (NSC777718), elimusertib (NSC800525), nedisertib (NSC802822), VX-984 (NSC792969), AZD-1390 (NSC803789), temozolomide (NSC362856), topotecan (NSC609699), trabectedin (NSC813783), staurosporine (NSC755774), and gemcitabine (NSC613327) were obtained from the National Cancer Institute (NCI) Developmental Therapeutics Program Chemical Repository. The FDA-approved anticancer drug set is available from the Developmental Therapeutics Program at https://dtp.cancer.gov/organization/dscb/obtaining/available_plates.htm. […] The stock solutions were prepared in dimethyl sulfoxide (DMSO, Sigma-Aldrich, St. Louis, MO, cat. D2650) at 400-fold the tested concentration and stored at -70 degrees C. Prior to their use, the stock solutions were diluted in fresh medium and the final DMSO concentration in the assay was 0.25% (v/v). All drugs and investigational agents were tested over a range starting from a high concentration at or near the clinical Cmax and decreasing in half-log increments. If the clinical Cmax for an agent had not been determined, the highest concentration tested was 10 microM.
Cell Lines. The patient-derived cancer cell (PDC) lines: 156681-154-R-J1-PDC, 283228-195-R-J1-PDC, 287954-098-R-J1-PDC, 292921-168-R-J2-PDC, 349418-098-R-PDC, 425362-245-T-J1-PDC, 556581-035-R-J1-PDC, and BL0293-F563-PDC were received from the NCI Patient-Derived Models Repository (PDMR, https://pdmr.cancer.gov). The established cell lines HS-SY-2 (RRID:CVCL_8719), MPNST, and SYO-1 (RRID:CVCL_7146) were obtained from the Sloan Kettering Institute. The alveolar soft parts sarcoma cell line ASPS-1 (RRID:CVCL_S738) was established at the NCI and grown from internal seed stocks. The following established cell lines were purchased from the American Type Culture Collection (ATCC, Manassas, VA): G-401 (ATCC, cat. CRL-1441, RRID:CVCL_0270), SW982 (ATCC, cat. HTB-93, RRID:CVCL_1734), VA-ES-BJ (ATCC, cat. CRL-2138, RRID:CVCL_1785), NCI-H719 (ATCC, cat. CRL-5837, RRID:CVCL_1582), NCI-H196 (ATCC, cat. CRL-5823, RRID:CVCL_1509), NCI-H841 (ATCC, cat. CRL-5845, RRID:CVCL_1595), NCI-H1618 (ATCC, cat. CRL-5879, RRID:CVCL_1480), NCI-H1876 (ATCC, cat. CRL-5902, RRID:CVCL_1503), DMS 114 (ATCC, cat. CRL-2066; RRID:CVCL_1174), NCI-H211 (ATCC, cat. CRL-5824; RRID:CVCL_1529), and SW 1271 (ATCC, cat. CRL-2177, RRID:CVCL_1716). The small cell lung cancer cell line COR-L88 was purchased from Sigma-Aldrich (cat. 92031917-1VL, RRID:CVCL_1141). The non-small cell lung cancer cell lines NCI-H226 (RRID:CVCL_1544) and NCI-H322M (RRID:CVCL_1557) were established at the NCI and grown from internal seed stocks. Pooled donor human umbilical vein endothelial cells (HUVEC, Lonza, cat. CC-2519) and human mesenchymal stem cells (hMSC, Lonza, cat. PT-2501) were purchased from Lonza (Walkersville, MD).
Cell Culture. All cells were maintained in an incubator at 37 degrees C and 5% CO2 with 95% humidity. […]

[1] = second compound 0.003 µM, first compound 0.00949 µM
[2] = second compound 0.003 µM, first compound 0.03 µM
[3] = second compound 0.003 µM, first compound 0.0949 µM
[4] = second compound 0.003 µM, first compound 0.3 µM
[5] = second compound 0.003 µM, first compound 0.949 µM
[6] = second compound 0.003 µM, first compound 3 µM
[7] = second compound 0.00949 µM, first compound 0.00949 µM
[8] = second compound 0.00949 µM, first compound 0.03 µM
[9] = second compound 0.00949 µM, first compound 0.0949 µM
[10] = second compound 0.00949 µM, first compound 0.3 µM
[11] = second compound 0.00949 µM, first compound 0.949 µM
[12] = second compound 0.00949 µM, first compound 3 µM
[13] = second compound 0.03 µM, first compound 0.00949 µM
[14] = second compound 0.03 µM, first compound 0.03 µM
[15] = second compound 0.03 µM, first compound 0.0949 µM
[16] = second compound 0.03 µM, first compound 0.3 µM
[17] = second compound 0.03 µM, first compound 0.949 µM
[18] = second compound 0.03 µM, first compound 3 µM
[19] = second compound 0.0949 µM, first compound 0.00949 µM
[20] = second compound 0.0949 µM, first compound 0.03 µM
[21] = second compound 0.0949 µM, first compound 0.0949 µM
[22] = second compound 0.0949 µM, first compound 0.3 µM
[23] = second compound 0.0949 µM, first compound 0.949 µM
[24] = second compound 0.0949 µM, first compound 3 µM
[25] = second compound 0.3 µM, first compound 0.00949 µM
[26] = second compound 0.3 µM, first compound 0.03 µM
[27] = second compound 0.3 µM, first compound 0.0949 µM
[28] = second compound 0.3 µM, first compound 0.3 µM
[29] = second compound 0.3 µM, first compound 0.949 µM
[30] = second compound 0.3 µM, first compound 3 µM

Structure (SMILES) | IC50 (second compound 0.003 µM) [µM] | IC50 (second compound 0.00949 µM) [µM] | IC50 (second compound 0.03 µM) [µM] | IC50 (second compound 0.0949 µM) [µM] | IC50 (second compound 0.3 µM) [µM] | viability, T/C [3] [%] | viability, T/C [4] [%] | viability, T/C [5] [%] | viability, T/C [6] [%] | viability, T/C [9] [%] | viability, T/C [10] [%] | viability, T/C [11] [%] | viability, T/C [12] [%] | viability, T/C [15] [%] | viability, T/C [16] [%] | viability, T/C [17] [%] | viability, T/C [18] [%] | viability, T/C [21] [%] | viability, T/C [22] [%] | viability, T/C [23] [%] | also measured
CNCc1ccc(-c2cc(-c3nc(-c4ccc(S(=O)(=O)C(C)C)cc4)cnc3N)on2)cc1 + CC[C@@]1(O)C(=O)OCc2c1cc1n(c2=O)Cc2cc3c(CN(C)C)c(O)ccc3nc2-1 | 0.207 | 0.207 | 0.18 | 0.134 | 0.0486 | 66.1 | 36.4 | 33.8 | 11.2 | 69.5 | 37.8 | 28.6 | 12.7 | 61 | 37.7 | 32.4 | 17.5 | 57.2 | 31.8 | 25.1 | viability, T/C [1]: 96.2%; viability, T/C [2]: 91%; viability, T/C [7]: 81.5%; viability, T/C [8]: 85.8%; viability, T/C [13]: 80%; viability, T/C [14]: 79.1%; viability, T/C [19]: 83.3%; viability, T/C [20]: 75.9%; viability, T/C [24]: 12.4%; viability, T/C [25]: 53.1%; viability, T/C [26]: 57.2%; viability, T/C [27]: 45.5%; viability, T/C [28]: 23.8%; viability, T/C [29]: 20.2%; viability, T/C [30]: 6.34%
Cn1ncnc1[C@H]1c2n[nH]c(=O)c3cc(F)cc(c23)N[C@@H]1c1ccc(F)cc1 + CC[C@@]1(O)C(=O)OCc2c1cc1n(c2=O)Cc2cc3c(CN(C)C)c(O)ccc3nc2-1 | > 3 | > 3 | > 3 | 1.64 | < 0.00949 | 83.4 | 82.4 | 86.5 | 64.9 | 82.5 | 84.8 | 92.1 | 62.9 | 70.6 | 73.5 | 62 | 57.7 | 60.9 | 59.5 | 58.2 | viability, T/C [1]: 93.5%; viability, T/C [2]: 83.8%; viability, T/C [7]: 91.5%; viability, T/C [8]: 81.9%; viability, T/C [13]: 70.7%; viability, T/C [14]: 73.7%; viability, T/C [19]: 60.6%; viability, T/C [20]: 56%; viability, T/C [24]: 40.9%; viability, T/C [25]: 43.5%; viability, T/C [26]: 45.4%; viability, T/C [27]: 41.9%; viability, T/C [28]: 41.9%; viability, T/C [29]: 37.3%; viability, T/C [30]: 25.1%
O=C(c1cc(Cc2n[nH]c(=O)c3ccccc23)ccc1F)N1CCN(C(=O)C2CC2)CC1 + CC[C@@]1(O)C(=O)OCc2c1cc1n(c2=O)Cc2cc3c(CN(C)C)c(O)ccc3nc2-1 | 23.7 | 22.5 | 17.7 | 10.5 | < 0.0949 | 83.3 | 80.5 | 84.1 | 78.9 | 85.6 | 83.8 | 87.1 | 78 | 72.6 | 76.3 | 81.8 | 75.8 | 63.6 | 66.3 | 59.7 | viability, T/C (second compound 0.003 µM, first compound 9.49 µM): 66.6%; viability, T/C (second compound 0.003 µM, first compound 30 µM): 45.7%; viability, T/C (second compound 0.00949 µM, first compound 9.49 µM): 73.7%; viability, T/C (second compound 0.00949 µM, first compound 30 µM): 42.2%; viability, T/C (second compound 0.03 µM, first compound 9.49 µM): 60.5%; viability, T/C (second compound 0.03 µM, first compound 30 µM): 41.1%; viability, T/C [24]: 60.2%; viability, T/C (second compound 0.0949 µM, first compound 9.49 µM): 49.6%; viability, T/C (second compound 0.0949 µM, first compound 30 µM): 39.4%; viability, T/C [27]: 36.2%; viability, T/C [28]: 43.4%; viability, T/C [29]: 43.3%; viability, T/C [30]: 39.6%; viability, T/C (second compound 0.3 µM, first compound 9.49 µM): 31.1%; viability, T/C (second compound 0.3 µM, first compound 30 µM): 17.6%
